{
  "source": "patent US8410078B2",
  "about": "“Composition and methods to treat cardiac diseases” (University of Connecticut, priority 2006, dated 2013)",
  "key": {"[1]": {"test_system": "cardiac P2X receptor", "experiment": "Whole-cell voltage clamp of P2 agonist-induced current in WT ventricular myocytes", "type": "cell-based, mouse", "source_text": "Mice displaying the CSQ model of severe cardiomyopathy and heart failure were bred and maintained by methods known in the art. The CSQ transgenic (TG) mice were originally provided by Dr. Larry Jones (Krannert Institute of Cardiology, Indiana University School of Medicine, Indiana), and developed hypertrophy followed by a lethal heart failure phenotype with death near the age of 3 months. Ventricular myocytes were obtained from 3-month old wild type (WT) and CSQ mice of either sex (26 WT, 47 TG) by an enzymatic dissociation procedure. Briefly, the hearts were rapidly excised from mice that had been anesthetized with pentobarbital and treated with 1000 Units of heparin. The aorta was cannulated and the heart perfused in a Langendorff apparatus with oxygenated (95% O2/5% CO2) Ca^2+-free solution (37° C.) for 5 minutes at a rate of 2.5 ml/min. The solution composition was: 126 mM NaCl, 4.4 mM KCl, 1.0 mM MgCl2, 18 mM NaHCO3, 11 mM Glucose, 4 mM HEPES, and 3 mM BDM (2,3-butanedione monoxime), (pH 7.3 adjusted with NaOH). Thereafter, the perfusing solution was changed to that containing 25 μM CaCl2 and liberase (70 μg/ml, Roche Molecular Biochemicals, Inc.) for 8-10 minutes. Cells were sedimented by gravity for 10-15 minutes and the pellet was resuspended in 200 μM Ca^2+-containing Tyrode's solution (containing 3 mM BDM), allowed to settle for 30 minutes at room temperature, and suspended with Tyrode's solution containing: 135 mM NaCl, 5.4 mM KCl, 1.0 mM CaCl2, 1.0 mM MgCl2, 10 mM HEPES and 10 mM dextrose (pH 7.4 adjusted with NaOH). The experiments were carried out at room temperature (22-23° C.) and were completed within 4-6 hours after myocyte isolation.\nThe whole cell patch-clamp technique was used for these experiments. Electrodes were prepared from borosilicate glass pipettes (1.2 mm i.d.) with a two step pulling procedure and filled with pipette solution. The pipette was connected via an Ag—AgCl wire to the head stage of an amplifier (List EPC-7, Medical Systems, Greenvale, N.Y.) controlled by a computer and Axon pClamp™ software. For voltage clamp experiments, the electrodes were filled with a solution containing: 135 mM cesium aspartate, 5 mM NaCl, 5 mM Mg2ATP, 10 mM HEPES, and 10 mM EGTA (pH 7.3 adjusted with CsOH) with or without 2 mM GDPβS. Electrode resistances were 2-4 MΩ. As soon as electrical contact was established, the superfusion medium was changed to a modified Tyrode's solution (5.4 mM KCl was omitted and 10 mM CsCl and 5 μM ouabain were added to Tyrode's solution to block K^+ currents and the Na/K pump current, respectively). In quantifying the P2 agonist-induced current, the Tyrode's solution contained the indicated concentration of each agent. In studying the effect of a P2 receptor antagonist, both agonist and antagonist were co-applied at the indicated concentrations. The voltage clamp protocol used was a ramp voltage protocol from −100 mV holding potential to +50 mV. The ramp protocol was applied to cells at 20 s intervals for 1 minute. Three current traces from −100 mV to 50 mV were averaged to construct the I-V relationship."}, "[2]": {"test_system": "intact CSQ mouse hearts", "experiment": "Cardiac function in intact CSQ mouse heart preparation", "procedure": "Following injection of heparin via tail vein (500 U/kg, iv) and anesthetization with nembutal (125 mg/kg for rats and 150 mg/kg for mice, ip) intraperitoneally, heart with all major vessels and lungs attached were excised. The aorta was then cannulated with a 20-gauge catheter, positioned about 2 mm above the coronary ostia. For the Langendorff method, a water-filled latex balloon (size #3) was inserted into the lumen of the left ventricle via the left atrium. The distal end of the balloon attached catheter was connected to a pressure transducer for measurement of intraventricular pressure and ±dP/dt. The balloon was inflated to a constantly held diastolic pressure of 5-7 mmHg. […]\nFor the working heart model, a column of KHS buffer produced a constant hydrostatic pressure of 65 mmHg (for rat) or 55 mmHg (for mice). […] Aortic flow was the amount of perfusate exiting the aortic cannula measured in […]. […]\nThe pressure recordings were channeled from amplifiers which had been pre-calibrated by a transducer simulator/calibrator (Ken Scientific Corp., Litchfield, Conn.). […] Data were analyzed by computer software (WorkBench for Windows+, Kent Scientific Corp) designed for an IBM-compatible computer (Dell). […] Data obtained with and without drug were analyzed by paired t test for possible statistically significant differences. […]"}},
  "data": [
    {"smiles": "Nc1nc(Cl)nc2c1ncn2C1[C@H]2C[C@@]2(COP(=O)(O)O)[C@@H](O)[C@H]1O", "note": "(stereo partly drawn) [MRS2339, (1′S,2′R,3′S,4′R,5′S)-4-(6-amino-2-chloro-9H-purin-9-yl)-1-[phosphoryloxymethyl]bicyclo[3.1.0]hexane-2,3-diol]", "values": [
      {"measurement": "Effect of GDPβS on MRS2339-evoked current density", "setting": "[1]; at +50 mV", "result": "no difference"},
      {"measurement": "MRS2339-evoked current density in the absence of GDPβS", "setting": "[1]; at −100 mV", "result": "−0.73±0.15", "unit": "pA/pF"},
      {"measurement": "MRS2339-evoked current density with GDPβS", "setting": "[1]; at −100 mV", "result": "−0.66±0.10", "unit": "pA/pF"},
      {"measurement": "+dP/dt", "setting": "[2]", "result": "increased"}
    ]}
  ]
}
